From a melting point compilation (Tetko et al.; mined from patent text by program, amines drawn as free bases though some values may be those of a salt)

A melting point of 138 to 140 °C was found for `C1=C(CCc2ccccc2)CCN(Cc2c[nH]c3ccccc23)C1` in this work. A melting point of 59 °C was found for `CCCOC(=O)n1cc2c(n1)NC(CCC)=C(C(=O)OCC)C2c1ccccc1Cl` (configuration not stated) in this work. A melting point of 222 to 225 °C was found for `Cc1cc(N2CCCC2)cc2c1C(=O)OC2=O` in this work. A melting point of 265 to 268 °C was found for `O=c1[nH]c2cc(Cl)ccc2c(O)c1Sc1cccc(Br)c1` in this work. A melting point of 137 to 138 °C was found for `CC(=NO)C(=O)c1ccc(OCc2cccc(C(F)(F)F)c2)cc1` in this work. A melting point of 125 to 127 °C was found for `Cc1ccc(C(CCN2CCCC2)c2ncc[nH]2)cc1` (configuration not stated) in this work. A melting point of 224 to 225 °C was found for `CCc1nc(N)nc(N)c1-c1ccc(Cl)c(N=NN(CCO)C(C)(C)C)c1` in this work. A melting point of 159 to 161 °C was found for `Cc1cccc2c1NC(C)c1nnnn1-2` (configuration not stated) in this work. A melting point of over 300 °C was found for `Cc1cc2n(C)c3cc(Cl)ncc3c(=O)n2n1` in this work. A melting point of 106 to 107 °C was found for `O=C(c1ccccc1)c1ccc2c(c1)CC(C(=O)NCCO)C2` (configuration not stated) in this work. A melting point of 84 to 85 °C was found for `CCOC(=O)C(=[N+]=[N-])C(=O)c1cc(I)cnc1Cl` in this work. A melting point of 191 to 192 °C was found for `Nc1ccccc1-c1n[nH]c(=S)n1N` in this work. A melting point of 212 °C was found for `Cc1ccc(C(=O)O)c(NC(=O)CCCCNC(=O)OC(C)(C)C)c1` in this work. A melting point of 94 to 96 °C was found for `O=S(=O)(Cc1ccccc1)c1nnnn1Cc1ccccc1` in this work. A melting point of 206 to 208 °C was found for `COc1cc(Nc2c(-c3ccc(S(C)(=O)=O)cc3)cnn(CC(F)(F)F)c2=O)cc(C(F)(F)F)c1` in this work. A melting point of 221 to 222 °C was found for `Fc1ccc2c(CCCC3CNCc4c3[nH]c3cnc5cc(Cl)ccc5c43)noc2c1` (configuration not stated) in this work. A melting point of 249 to 250 °C was found for `COc1cc(Cl)cc(C)c1Nc1nc2c(Cl)ccc(C(=O)C(C)(C)C)c2n1C` in this work. A melting point of 94 to 95 °C was found for `N#Cc1ccccc1OC[C@@H](O)CNCCOc1ccc2oc(-c3ccon3)cc2c1` in this work. A melting point of 173 to 176 °C was found for `CC(C)(C)CN1C(=O)[C@@H](CC=O)O[C@H](c2ccccc2Cl)c2cc(Cl)ccc21` (relative stereo) in this work. A melting point of 181 to 183 °C was found for `CCCCc1nc(C(O)(CC)CC)c(C(=O)O)n1Cc1ccc(-c2ccccc2-c2nnn[nH]2)cc1` in this work. A melting point of 178 to 183 °C was found for `CCOC(=O)c1cn2c(n1)CN(C(=O)CCl)c1ccccc1-2` in this work. A melting point of over 250 °C was found for `CCOC(=O)c1nc2c(=O)[nH]c3ccc(-n4ccnc4)cc3n2c1C` in this work. A melting point of 115 to 116 °C was found for `CSc1nnc2ccc3ccccc3n12` in this work. A melting point of 148 to 150 °C was found for `Cc1cc(C)nc(NC(=O)NS(=O)(=O)c2ccccc2C2(O)CCC2)n1` in this work. A melting point of 70 to 71 °C was found for `O=C(O)CCCc1ccc(-c2cccc(Cl)c2Cl)cc1` in this work. A melting point of 98 to 101 °C was found for `CC(C)(C)C(O)(Cn1cncn1)C1CC1c1ccc(Cl)cc1Cl` (configuration not stated) in this work. A melting point of 136 °C was found for `Cc1nc(-c2ccc(C(F)(F)F)cc2)sc1C(C)(C)Oc1cccc(COC(C)(C)C(=O)O)c1` in this work. A melting point of 154 to 157 °C was found for `CC(C(=O)C=Cc1ccccc1)C(=O)C=Cc1ccccc1` (configuration not stated) in this work. A melting point of 78 to 80 °C was found for `COc1cc(C)ccc1Oc1ccc([N+](=O)[O-])cc1` in this work. A melting point of 142 to 144 °C was found for `OCC1Cn2c(nc3ccccc32)-c2ccccc2O1` (configuration not stated) in this work. A melting point of 168 to 169 °C was found for `CN(C)C(=O)c1c(-c2ccc3ccccc3c2)ccc2ccccc12` in this work. A melting point of 186 to 188 °C was found for `CCOC(=O)c1oc2c([N+](=O)[O-])c(O)ccc2c1C` in this work. A melting point of 170 to 175 °C was found for `N#Cc1cc(Br)c(I)c(Br)c1` in this work. A melting point of 83 °C was found for `COc1cc(C)c(Cl)cc1C(C)=O` in this work. A melting point of 173 °C was found for `CCc1ccc2[nH]c(C(=O)O)cc2c1` in this work. A melting point of 96 to 98 °C was found for `CCN(C(=O)c1cc(N(C)C)ccc1[Si](C)(C)C)C(OC)C(C)(C)C` (configuration not stated) in this work. A melting point of 133 to 134 °C was found for `CCOC(=O)C1=C(C)NC(c2cscn2)=NC1c1cccc(C)c1` (configuration not stated) in this work. A melting point of 139 to 140 °C was found for `O=C1CC(c2ccccc2)Oc2cc(OCCn3ccnc3)ccc21` (configuration not stated) in this work. A melting point of 167 to 169 °C was found for `O=C1C(O)=C(N2CCN(c3cccc(C(F)(F)F)c3)CC2)C(=O)c2ccccc21` in this work. A melting point of 240 to 241 °C was found for `NC(=O)NC1CCC(=O)c2ccsc21` (configuration not stated) in this work. A melting point of 113 to 115 °C was found for `COC(=N)N1CCC(c2nn(-c3ccc(C(F)(F)F)cc3)c3ccccc23)CC1` in this work. A melting point of 65 to 66 °C was found for `CCCCCCCC(SC)S(=O)(=O)c1ccc(C)cc1` (configuration not stated) in this work. A melting point of 170 to 173 °C was found for `COC(=O)c1cn2c(C)csc2n1` in this work. A melting point of 156 to 157 °C was found for `CC(=O)NCCOC(=O)C1CCn2c1cc(C)c2C(=O)c1ccc(Cl)n1C` (configuration not stated) in this work. A melting point of 102 to 104 °C was found for `CCCCCCCCCCCCCCCCCCOc1ccc(C(=O)O)c(OCCCOc2ccc(OCc3ccccc3)cc2)c1` in this work. A melting point of over 270 °C was found for `COc1cc2c(c(F)c1CNC1CCCNC1c1ccccc1)N(C)C(=O)CC2(C)C` (configuration not stated) in this work. A melting point of 135 to 140 °C was found for `COc1cc(CC(=O)C(CNCCOc2ccc(C(=O)O)cc2OC)NC2CC2)ccc1NC(=O)Nc1ccccc1C` (configuration not stated) in this work. A melting point of 137 to 138 °C was found for `COC1(c2csc(Sc3ccc4c(c3)OCC/C4=N\O)c2)CCOCC1` in this work. A melting point of 103 to 105 °C was found for `O=C(O)CCCCCCCCc1ccc(O)cc1` in this work. A melting point of 166 to 170 °C was found for `CC(O)(c1ccc(F)cc1)c1ccc(-c2ccncc2)cc1` (configuration not stated) in this work. A melting point of 121 to 122 °C was found for `CC(C#CC1=C(C)C(O)C(O)C1(C)C)=CCO` (configuration not stated) in this work. A melting point of 139 to 140 °C was found for `CC[C@@H](NC(=O)N1CC(=O)NC[C@H](Cc2cc(Cl)ccc2OC)C1=O)c1ccc(C(=O)O)c(N)c1` in this work.
